Assay results taken from PubChem BioAssay (NCI).
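Cells were grown in 96-well plates and exposed to each compound for 48 hours at five concentrations; endpoints were interpolated linearly between bracketing concentrations, or set to the highest concentration if not reached. The concentration for 50% growth inhibition is given as GI50. TGI marks complete inhibition of growth.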

Test system: MDA-MB-468 breast
Assay: inhibition of tumour cell growth, NCI panel, 48 h

Row | SMILES | GI50 | TGI
1 | COc1ccc(Nc2ncc(Br)c(NCCCNC(=O)C3CCC3)n2)cc1 | 15.4 µM | 37 µM
2 | CCC(=O)O[C@H]1CC[C@H]2[C@@H]3CC[C@H]4CC(=O)[C@H](C)C[C@]4(C)[C@H]3CC[C@]12C | 33.9 µM | > 100 µM
3 | COc1ccc(-c2nc3sc(-c4ccc(Cl)cc4)cn3n2)cc1 | 2.08 µM | > 50 µM
4 | COc1ccc(N2Cc3cnc(Nc4ccccc4)nc3N([C@@H]3CC[C@@H](O)C3)C2=O)cc1 | 6.65 µM | > 25 µM
5 | CC[C@@]1(O)C[C@H](OC2CC(N(C)C)C(OC3CC(O)C(OC4CCC(=O)C(C)O4)C(C)O3)C(C)O2)c2c(cc3c(c2O)C(=O)c2c(O)cccc2C3=O)[C@H]1C(=O)OC (some centres undefined) | 0.017 µM | 0.123 µM
6 | C=CCN(/C=C1/C(=O)O[C@H](COC)[C@@]2(C)C1=C(O)C(=O)C1=C2[C@H](OC(C)=O)C[C@]2(C)C(=O)CC[C@@H]12)CC=C | 0.101 µM | 0.779 µM
7 | C[C@H](NC(=O)[C@@H]1CSSC[C@@H](NC(=O)c2nc3ccccc3cc2O)C(=O)NCC(=O)N1C)c1ccccc1 | 5.89 µM | 13.2 µM
